Source: patent US5098916A, “Propanobicyclic amine derivatives for CNS disorders” (G. D. Searle & Co., priority 1990, dated 1992)

Key:
sigma receptor = assay: Radioreceptor assay: sigma receptor, displacement of [^3 H]-3-(+)-PPP; assay type: binding, male Sprague-Dawley rats; settings: units ± SEM; rat brain crude membranes; 2 nM [^3 H]-(+)-3-PPP; 1 hr incubation at room temperature; pH 7.4; read-out: Ki apparent
Description: To determine the effects of the compounds in a sigma receptor assay, crude membrane preparations were prepared as follows. Brains from male Sprague-Dawley rats were homogenized in 10 volumes (wt/vol) of 0.32M sucrose, using a Polytron grinder. The homogenate was centrifuged at 900×G for 10 minutes at 4° C. The supernatant was collected and centrifuged at 22,000×g for 20 minutes at 4° C. The pellet was resuspended in 10 volumes of 50 mM Tris/HCl buffer (pH 7.4) and centrifuged at 22,000×g for 20 minutes at 4° C. The pellet was resuspended in 5 mM Tris/HCl buffer (pH 7.4) to give a final concentration of 250 mg/ml of the crude material. Incubation tubes were prepared in triplicate and contained 0.1 ml of tissue suspension, 2 nM of [^3 H]-(+)-1-propyl-3-(3-hydroxyphenyl)piperidine [^3 H]-3-(+)-PPP, and varying concentrations of the displacing ligand (0.1-1,000 nM) in a final volume of 0.5 ml. After a 1 hr incubation at room temperature, the contents of the test tubes were filtered through GS filter paper which had been presoaked for at least 2 hours in 0.05% polyethyleneimine. The test tubes were rinsed three times with Tris/HCl buffer. Radioactivity on the filters was determined using liquid scintillation spectrometry and inhibition curves were calculated according to the method of Cheng and Prusoff [Biochem. Pharmacol., 22, 3099-3108 (1973)].

[1] = Blockade of agonist (N-allylnormetazocine)-induced stereotyped behavior and ataxia; assay type: in vivo; settings: 1 mg/kg i.p. test compound; 15 mg/kg i.p. N-allylnormetazocine
Description: Compounds of the invention were evaluated for their ability to block the effects of N-allylnormetazocine on the induction of stereotyped behavior and ataxia. To test for antagonism, drugs are administered at varying times before i.p. administration of 15 mg/kg of N-allylnormetazocine. Behavioral and ataxia ratings are taken at 2.5 minutes, 5 minutes, and every 5 minutes thereafter until the animal returns to control behavior. […] The lowest dose of the test compound which is capable of blocking the stereotyped behavior and ataxia induced by N-allylnormetazocine was determined.

Structure (SMILES)	Ki (sigma receptor)	block of N-allylnormetazocine-induced stereotyped behavior [1]
c1ccc2c(c1)C1CCC2C(N2CCCCC2)CC1 (stereo not drawn) [Compound No. 1, exo- and endo-1-(2-Benzobicyclo[3.2.2]nonenyl)piperidine]	6 ± 1 nM	fully blocked
c1ccc2c(c1)C1CCC2C(N2CCCCC2)CC1 (stereo not drawn) [Compound No. 2, exo-1-(2-Benzobicyclo[3.2.2]nonenyl)piperidine]	10 ± 2 nM	–
c1ccc2c(c1)C1CCC2C(N2CCCCC2)CC1 (stereo not drawn) [Compound No. 3, endo-1-(2-Benzobicyclo[3.2.2]nonenyl)piperidine]	150 ± 20 nM	–
OCCN1CCN(C2CCC3CCC2c2ccccc23)CC1 (stereo not drawn) [Compound No. 4, endo- and exo-1-(2-Benzobicyclo[3.2.2]nonenyl)-4-(2-hydroxyethyl)piperazine]	305 ± 20 nM	–
CN1CCN(C2CCC3CCC2c2ccccc23)CC1 (stereo not drawn) [Compound No. 5]	16000 ± 4000 nM	–
